Source: patent US4771123A, “Peptide thioneamides as selective substrates for cysteine proteases” (Enzyme Systems Products, Inc., priority 1986, dated 1988)

Assays:
Format in all cases: biochemical
[1] = system: Trypsin; assay: Hydrolysis of oxyamide and thioneamide substrates by trypsin (catalytic constants, Table I); settings: pH 7.5, Tris buffer (50 mM), 10 mM CaCl2, 12.5% DMSO
Method: (§1) Table I below provides a comparison between hydrolysis rates of trypsin and papain acting on two different oxyamides and on their corresponding thioneamides. Trypsin was used at pH 7.5 in a Tris buffer (50 mM), with 10 mM CaCl2, and 12.5% DMSO. Papain was used at pH 6.5 in a thiol buffer (52 mM NaH2 PO4, 31 mM dithiothreitol, 2.1 mM EDTA) and 12.5% DMSO. Table I lists the catalytic constants kcat (moles product formed per second per mole enzyme), KM (M), and kcat /KM (M^-1 sec^-1) for the indicated substrates.

[2] = biological target: T1, Papain (Carica papaya, UniProt P00784); assay: Hydrolysis of oxyamide and thioneamide substrates by papain (catalytic constants, Table I); settings: pH 6.5, thiol buffer (52 mM NaH2PO4, 31 mM dithiothreitol, 2.1 mM EDTA), 12.5% DMSO
T1 sequence (P00784 134-345): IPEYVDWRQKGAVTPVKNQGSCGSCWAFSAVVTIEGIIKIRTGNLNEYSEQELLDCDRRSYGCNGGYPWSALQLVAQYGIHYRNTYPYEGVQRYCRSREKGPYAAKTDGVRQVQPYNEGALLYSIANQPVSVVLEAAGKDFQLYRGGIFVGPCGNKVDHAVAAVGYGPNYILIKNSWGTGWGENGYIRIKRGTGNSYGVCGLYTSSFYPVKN
Method: as §1

[3] = biological target: T1, Papain; assay: Selective detection assay, rate of AIE formation with papain alone (Table II); settings: Papain 6.85×10^-6 M; thiol buffer pH 6.5, 2.5% DMSO; substrate 2.46×10^-4 M (Cbz-Lys-AIE) or 2.53×10^-4 M (Cbz-Lys.PSI.[CS]-AIE)
Method: (§2) A thiol buffer at pH 6.5 was used (52 mM NaH2 PO4, 31 mM dithiothreitol, 2.1 mM EDTA) with 2.5% DMSO. The enzyme concentrations in the assays were 6.85×10^-6 M for papain, and 1.28×10^-6 M for trypsin. Substrate concentrations were 2.46×10^-4 M for Cbz-Lys-AIE, and 2.53×10^-4 M for Cbz-Lys.PSI.[CS]-AIE. Rates are given in terms of moles AIE formed per minute.

[4] = system: Trypsin; assay: Selective detection assay, rate of AIE formation with trypsin alone (Table II); settings: Trypsin 1.28×10^-6 M; thiol buffer pH 6.5, 2.5% DMSO; substrate 2.46×10^-4 M (Cbz-Lys-AIE) or 2.53×10^-4 M (Cbz-Lys.PSI.[CS]-AIE)
Method: as §2

Compound	Km [1] [µM]	kcat [1]	kcat /KM [1] [M⁻¹ s⁻¹]	Km [2] [µM]	kcat [2]	kcat /KM [2] [M⁻¹ s⁻¹]	Rate of AIE formation [3]	rate of product formation by trypsin (in words) [1]	Rate of AIE formation [4]
COC(=O)c1cc(NC(=O)[C@H](CCCCN)NC(=O)OCc2ccccc2)cc(C(=O)OC)c1 [Cbz--Lys--AIE, Cbz-Lys-AIE]	168	1.15 × 10^-1 moles product formed per secon	686	281	2.95 × 10^-2 moles product formed per secon	105	6.03 moles AIE formed per minute		
Cbz-Lys.PSI.[CS]-AIE.HCl [Cbz--Lys.psi.[CS]--AIE]				213	4.00 × 10^-3 moles product formed per secon	18.8	1.15 moles AIE formed per minute	NO RATE	0.00 moles AIE formed per minute
Br.COC(=O)c1cc(NC(=S)[C@H](CCCNC(=N)N)NC(=O)[C@H](Cc2ccccc2)NC(=O)OCc2ccccc2)cc(C(=O)OC)c1 [Cbz--Phe--Arg.psi.[CS]--AIE, Cbz-Phe-Arg.PSI.[CS]-AIE.HBr]				574	5.35 moles product formed per secon	0.0932		NO RATE	
Cbz--Phe--Arg--AIE	502	9.03 × 10^-1 moles product formed per secon	1800	813	3.53 × 10^1 moles product formed per secon	43500			
